Patent US20210369615A1, “SOLID ORAL FORMULATIONS OF AMPHOTERICIN B” (iCo Therapeutics Inc., priority 2018, published 2021)
Values joined by “and” are separate entries in the source; they are usually repeats but may differ in a detail not shown here. Equal entries are not always repeated.

Assay: Stability study: related substances (% area) after storage
Type: physicochemical
Description: A stability study was initiated for Formulation 1A and Formulation 2A. The capsules were packaged in 30 cc HDPE bottles with induction sealed PP caps and the bottles were stored under ICH stability conditions in humidity chambers at 25° C./60% RH and under accelerated conditions, 40° C./75% RH. The capsules were stored at 4-8° C. directly after preparation until they were placed into the stability chambers. […]
Another stability study was initiated for Formulation 5A. The capsules were packaged as per Formulation 1A and Formulation 2A and store under the same conditions.
An Amphotericin B/TPGS/Peceol/Gelucire 44/14 semi-solid lipid based formulation in hard shell capsule was prepared (Formulation 5A) and stored under ICH controlled stability conditions. […] The dissolution profile however decreased (Table 23 and FIG. 9). As indicated before, this behavior could be a result a recrystallization or aggregation of the AmpB.

Which results are given for `C[C@@H]1[C@H](O)[C@@H](C)/C=C/C=C/C=C/C=C/C=C/C=C/C=C/[C@H](O[C@@H]2O[C@H](C)[C@@H](O)[C@H](N)[C@@H]2O)C[C@@H]2O[C@](O)(C[C@@H](O)C[C@@H](O)[C@H](O)CC[C@@H](O)C[C@@H](O)CC(=O)O[C@H]1C)C[C@H](O)[C@H]2C(=O)O` [AmpB (Corealis lot drawing 729)]?
Related Substances, Total % area (T = 0): 7.67 % area; Related Substances, individual peak % area (T = 0, individual peaks ≥ 0.10%, RRT given): 0.54 % area and 0.12 % area (2×) and 0.32 % area and 0.33 % area and 0.24 % area and 0.60 % area and 0.31 % area and 0.65 % area and 0.69 % area and 0.30 % area and 1.00 % area and 1.47 % area and 0.82 % area and 0.14 % area; Related Substances, Total % area (T = 1 month 40° C./75% RH): 7.71 % area; Related Substances, individual peak % area (T = 1 month 40° C./75% RH, individual peaks, RRT): 0.79 % area and 0.13 % area and 0.57 % area and 0.16 % area and 0.32 % area and 0.33 % area and 0.24 % area and 0.59 % area and 0.31 % area (2×) and 0.11 % area and 0.62 % area and 0.69 % area and 1.00 % area and 1.52 % area; Related Substances, Total % area (T = 3 months 25° C./60% RH): 7.38 % area; Related Substances, individual peak % area (T = 3 months 25° C./60% RH, individual peaks, RRT): 0.14 % area (2×) and 0.78 % area and 0.15 % area (3×) and 0.48 % area and 0.35 % area and 0.22 % area and 0.54 % area and 0.25 % area and 0.57 % area and 0.77 % area and 0.13 % area and 0.16 % area and 1.03 % area and 1.37 % area; Related Substances, Total % area (T = 6 months 25° C./60% RH): 7.18 % area; Related Substances, individual peak % area (T = 6 months 25° C./60% RH, individual peaks, RRT): 0.12 % area and 0.86 % area and 0.14 % area (2×) and 0.52 % area and 0.64 % area and 0.20 % area and 0.71 % area (2×) and 0.56 % area and 0.10 % area and 0.15 % area and 1.01 % area and 1.32 % area; Related Substances, Total % area (T = 6 months 40° C./75% RH): 7.32 % area
